# Experimental data published in patent publication US20240197828A1, “Chimeric molecule to treat sepsis and other inflammatory conditions” (THE FEINSTEIN INSTITUTES FOR MEDICAL RESEARCH, priority 2022, published 2024).
# Entries after “also recorded” stand apart in the source; their conditions may differ. Residues, ends and D or L forms follow the SMILES beside them.
# Tested on: RAW264.7 macrophages
# Test: Intracellular uptake of FITC-rmCIRP by macrophages (flow cytometry, confocal microscopy)
# Assay type: cell-based, mouse
# Conditions: for intracellular FITC-rmCIRP uptake (flow cytometry): RAW264.7, FITC-rmCIRP 1 μg/mL co-incubated with test substance (peptide 10 μg/mL), 1 hour, vs FITC-rmCIRP alone
# Procedure: FIG. 3. Effects of MOP peptides MOP-3, MOP-8 and MOP-14 on eCIRP. Flow cytometry experiment whereby RAW264.7 macrophages were treated for 1 hour according to respective group: PBS (volume-equivalent), FITC-rmCIRP (1 μg/mL), or a mixture of FITC-rmCIRP (1 μg/mL) with each respective peptide (10 μg/mL) after co-incubating for 30 minutes. Intracellular FITC-rmCIRP was analyzed by flow cytometry. Median fluorescence intensity (MFI) reported as percentage relative to PBS-treated RAW264.7 cells. Data from two independent experiments are expressed as mean±SEM and compared by one-way ANOVA and SNK test. *p<0.05 vs. PBS, #p<0.05 vs. eCIRP.
# Computational modeling was used to determine the likely domain of MFG-E8's binding to eCIRP. The known amino acid (AA) sequence of this domain was used to develop and test potential therapeutic peptides. An MFG-E8 derived oligopeptide, MOP3, was developed based on 15 AA from MFG-E8 discoidin 2 domain (mimicking MFG-E8's C-terminal) and tagged with the 3 AA, RGD, (mimicking MFG-E8's binding capacity for the integrin receptor at the N-terminal). Binding of MOP3 to CIRP was quantified using Surface Plasmon Resonance (SPR) analysis. Macrophages (RAW264.7 cells) were treated with FITC-recombinant mouse (rm)-CIRP or co-incubated MOP3 and FITC-rmCIRP with and without a. Br-integrin Ab. After 1 h, cells were fixed and analyzed for intracellular FITC-rmCIRP by flow cytometry. Macrophages were stimulated with rmCIRP or co-incubated mixture of MOP3 and rmCIRP. After 4 h, cell culture supernatants were analyzed for inflammatory cytokine, TNFα.
# Mouse macrophage cell line, RAW264.7 cells were obtained from American Type Culture Collection (ATCC) and cultured in DMEM media with 10% FBS, 1% penicillin and streptomycin, and 1% glutamine. Cells were kept in 37° C. incubator under humidified conditions containing 5% CO2.
# rmCIRP was labeled using a FITC Conjugation Kit (Abcam, ab188285), and rmMFG-E8 was labeled using Alexa Fluor Conjugation Kit (Abcam, ab269821), both according to respective manufacturer's instructions.
# In order to visualize cellular uptake, we initially utilized TRITC-BSA as an internal probe, as BSA is taken up into cells primarily by endocytosis and retained intracellularly after fixation (27, 28). For further visualization of intracellular localization, we utilized LAMP1 primary antibody (as it is distributed among endolysosomal organelles and serves as a marker for lysosomal compartments) (29), and utilized lysotracker in live cell experiments (as it allows for imaging of dynamics of lysosome vesicle movements) (30). RAW264.7 cells were treated in various conditions with rmCIRP, rmMFG-E8, and inhibitory antibody against auß3-integrin (Bioss antibodies, bs-1310R) for 4 hours. Cells were fixed with 4% paraformaldehyde (PFA), washed with 1×PBS, permeabilized using 0.3% Triton x100, and blocked using 5% BSA 100 mM Glycine in PBS prior to primary antibody treatment. After incubation with secondary antibodies, cells were washed and mounted with ProLong Gold antifade reagent (Invitrogen). For live cell imaging, cells remained in treatment conditions and were imaged under CO2. Staining procedures were performed according to the manufacturers' instructions utilizing respective fluorescent dyes and probes. For all imaging, confocal microscopy images were obtained using a Zeiss LSM880 confocal microscope equipped with a 63× objective. Images were quantified and analyzed using Image J, FIJI.(31) Flow cytometry.
# To detect changes in internalized eCIRP in the presence of MFG-E8, RAW264.7 cells were seeded in 12-well plates (approximately 3×10^5 cells/well) and were treated with FITC-eCIRP. Treatment groups consisted of FITC-eCIRP, FITC-eCIRP with MFG-E8, FITC-eCIRP with MFG-E8 and αvβ3-integrin antibody (0.5 μg/mL), or FITC-eCIRP with MFG-E8 and IgG isotype (0.5 μg/mL). Similar experiments were conducted with MOP3 instead of MFG-E8 in parallel groups. […]
smiles,measurement,setting,value
"CC(C)C[C@H](NC(=O)[C@H](CC(N)=O)NC(=O)[C@H](Cc1c[nH]c2ccccc12)NC(=O)[C@@H](NC(=O)[C@H](CCCCN)NC(=O)[C@H](Cc1ccc(O)cc1)NC(=O)[C@H](CO)NC(=O)[C@H](CO)NC(=O)[C@H](CO)NC(=O)[C@H](CC(=O)O)NC(=O)CNC(=O)[C@@H](N)CCCNC(=N)N)[C@@H](C)O)C(=O)N[C@@H](CCCNC(=N)N)C(=O)N[C@@H](C)C(=O)N[C@@H](Cc1ccccc1)C(=O)NCC(=O)N[C@@H](Cc1c[nH]c2ccccc12)C(=O)N[C@@H](Cc1ccc(O)cc1)C(=O)O [MOP3, RGDSSSYKTWNLRAFGWY] (H-RGDSSSYKTWNLRAFGWY-OH; N-terminus and C-terminus assumed)",intracellular FITC-rmCIRP uptake (flow cytometry),,increased intracellular fluorescence; also recorded: significantly increased intracellular rmCIRP uptake
same,intracellular FITC-rmCIRP uptake (flow cytometry),listed as peptide-3,could increase intracellular uptake of FITC-eCIRP
same,intracellular FITC-rmCIRP uptake with αvβ3-integrin blocking antibody (flow cytometry),"RAW264.7, αvβ3-integrin antibody 0.5 μg/mL",prevented
